Assay results published in ChEMBL document CHEMBL5236625, “New class of fused [3,2-b][1,2,4]triazolothiazoles for targeting glioma in vitro” (Bioorg Med Chem Lett, 2023).
Active and inactive are the calls of the source. The rule behind the calls is not given here.

Key:
C6 [1] = experiment: Induction of cell cycle arrest in rat C6 cells assessed as cell population in G2-M phase at 10 uM (reference value: 19.3%); type: functional
LN-18 [2] = experiment: Cytotoxicity against human LN-18 cells assessed as cell viability measured upto 108 hrs by MTT assay; type: functional, cell-based; conditions: LN-18, 108 h
[3] = biological target: T1, Serine/threonine-protein kinase AKT (Homo sapiens) (UniProt P31751+Q9Y243+P31749); experiment: Inhibition of AKT phosphorylation at Thr308 in human LN-18 cells by Western blot analysis; type: cell-based; conditions: dose 10-100 µM
T1 sequence (P31749 whole entry, looked up): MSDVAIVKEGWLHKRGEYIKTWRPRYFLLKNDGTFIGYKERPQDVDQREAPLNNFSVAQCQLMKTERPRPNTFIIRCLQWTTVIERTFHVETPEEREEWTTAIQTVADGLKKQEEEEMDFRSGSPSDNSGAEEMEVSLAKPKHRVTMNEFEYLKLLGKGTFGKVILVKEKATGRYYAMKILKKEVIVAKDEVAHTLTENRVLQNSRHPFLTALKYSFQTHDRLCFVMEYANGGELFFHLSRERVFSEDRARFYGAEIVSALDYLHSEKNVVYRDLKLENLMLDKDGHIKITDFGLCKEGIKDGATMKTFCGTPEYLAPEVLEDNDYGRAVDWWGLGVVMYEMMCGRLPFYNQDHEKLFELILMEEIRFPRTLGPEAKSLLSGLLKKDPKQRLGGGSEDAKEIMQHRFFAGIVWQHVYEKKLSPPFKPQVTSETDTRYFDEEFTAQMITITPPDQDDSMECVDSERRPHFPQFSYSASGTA
T1 sequence (P31751 whole entry, looked up): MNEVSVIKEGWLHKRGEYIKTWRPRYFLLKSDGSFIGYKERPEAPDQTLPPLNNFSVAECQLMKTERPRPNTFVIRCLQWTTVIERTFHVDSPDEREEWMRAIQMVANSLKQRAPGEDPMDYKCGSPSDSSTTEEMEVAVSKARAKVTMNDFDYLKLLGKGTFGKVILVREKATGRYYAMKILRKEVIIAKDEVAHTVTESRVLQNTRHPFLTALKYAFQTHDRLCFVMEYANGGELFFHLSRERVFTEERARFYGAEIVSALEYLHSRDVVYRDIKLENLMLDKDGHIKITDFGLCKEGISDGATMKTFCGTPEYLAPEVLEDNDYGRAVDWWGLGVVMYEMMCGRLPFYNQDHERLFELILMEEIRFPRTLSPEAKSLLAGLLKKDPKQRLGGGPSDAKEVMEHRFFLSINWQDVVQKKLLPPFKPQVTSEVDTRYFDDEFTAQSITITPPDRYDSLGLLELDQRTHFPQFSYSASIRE
T1 sequence (Q9Y243 whole entry, looked up): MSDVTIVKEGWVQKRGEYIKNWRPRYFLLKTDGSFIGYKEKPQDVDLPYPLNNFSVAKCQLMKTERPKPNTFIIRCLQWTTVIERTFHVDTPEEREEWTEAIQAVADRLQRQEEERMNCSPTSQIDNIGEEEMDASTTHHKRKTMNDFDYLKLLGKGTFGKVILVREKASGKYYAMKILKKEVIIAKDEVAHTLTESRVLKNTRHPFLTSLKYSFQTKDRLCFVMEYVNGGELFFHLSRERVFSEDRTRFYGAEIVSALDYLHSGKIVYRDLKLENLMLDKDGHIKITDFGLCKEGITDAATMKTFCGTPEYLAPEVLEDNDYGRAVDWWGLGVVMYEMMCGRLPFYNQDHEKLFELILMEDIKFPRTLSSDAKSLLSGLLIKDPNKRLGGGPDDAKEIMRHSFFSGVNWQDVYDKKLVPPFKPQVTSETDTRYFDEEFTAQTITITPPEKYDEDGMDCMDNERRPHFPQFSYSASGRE

LN-18 [4] = experiment: Induction of apoptosis in human LN-18 cells assessed as cell population in […] at 50 to 100 uM (reference value: 2 to 7%); type: functional; conditions: dose 50-100 µM
Rattus norvegicus = species: Rattus norvegicus; experiment: Inhibition of ERK phosphorylation in rat C6 cells by Western blot analysis; type: cell-based; conditions: dose 50-100 µM
C6 [5] = experiment: Induction of apoptosis in rat C6 cells assessed as reduction in XBP1 expression at 10 to 100 uM by Western blot analysis; type: functional, cell-based; conditions: dose 10-100 µM
LN-18 [6] = experiment: Inhibition of ERK phosphorylation in human LN-18 cells by Western blot analysis; type: cell-based; conditions: dose 10-100 µM
[7] = biological target: T1, Serine/threonine-protein kinase AKT (Homo sapiens); experiment: Inhibition of AKT phosphorylation at Ser473 in human LN-18 cells by Western blot analysis; type: cell-based; conditions: dose 10-100 µM
LN-18 [8] = experiment: Induction of cell cycle arrest in human LN-18 cells assessed as cell population in G2-M phase at 10 uM (reference value: 39.4%); type: functional
LN-18 [9] = experiment: Antimigratory activity against human LN-18 cells assessed as rate of cell migration measured at 100 uM by wound healing assay (reference value: 24.46 um/hr); type: functional
C6 [10] = experiment: Induction of apoptosis in rat C6 cells assessed as reduction in IRE1 expression at 10 to 100 uM by Western blot analysis; type: functional, cell-based; conditions: dose 10-100 µM
C6 [11] = experiment: Inhibition of AKT phosphorylation at Thr308 in rat C6 cells by Western blot analysis; type: cell-based; conditions: dose 10-100 µM
LN-18 [12] = experiment: Induction of apoptosis in human LN-18 cells assessed as increase in Bax expression at 10 to 100 uM by Western blot analysis; type: functional, cell-based; conditions: dose 10-100 µM
LN-18 [13] = experiment: Induction of apoptosis in human LN-18 cells assessed as reduction in XBP1 expression at 10 to 100 uM by Western blot analysis; type: functional, cell-based; conditions: dose 10-100 µM
C6 [14] = experiment: Inhibition of AKT phosphorylation at Ser473 in rat C6 cells by Western blot analysis; type: cell-based; conditions: dose 10-100 µM
C6 [15] = experiment: Antimigratory activity against rat C6 cells assessed as rate of cell migration measured at 100 uM by wound healing assay (reference value: 21.95 um/hr); type: functional
LN-18 [16] = experiment: Induction of apoptosis in human LN-18 cells assessed as reduction in IRE1 expression at 10 to 100 uM by Western blot analysis; type: functional, cell-based; conditions: dose 10-100 µM
C6 [17] = experiment: Inhibition of colony formation in rat C6 cells at 10 to 100 uM measured after 48 hrs by clonogenic assay; type: functional, cell-based; conditions: dose 10-100 µM
C6 [18] = experiment: Cytotoxicity against rat C6 cells assessed as cell viability measured upto 108 hrs by MTT assay; type: functional, cell-based; conditions: C6, 108 h
C6 [19] = experiment: Induction of apoptosis in rat C6 cells assessed as cell population in […] at 50 to 100 uM (reference value: 2 to 7%); type: functional; conditions: dose 50-100 µM
C6 [20] = experiment: Induction of apoptosis in rat C6 cells assessed as increase in Bax expression at 10 to 100 uM by Western blot analysis; type: functional, cell-based; conditions: dose 10-100 µM
LN-18 [21] = experiment: Inhibition of colony formation in human LN-18 cells at 10 to 100 uM measured after 48 hrs by clonogenic assay; type: functional, cell-based; conditions: dose 10-100 µM
C6 [22] = experiment: Induction of cell cycle arrest in rat C6 cells assessed as cell population in sub-G1 phase at 10 uM (reference value: 60%); type: functional
LN-18 [23] = experiment: Induction of cell cycle arrest in human LN-18 cells assessed as cell population in sub-G1 phase at 10 uM (reference value: 44%); type: functional
[24] = Solubility in DMSO; type: physicochemical

| Structure (SMILES) | IC50 (LN-18 [2]) [µM] | inhibition [3] | Activity (LN-18 [4]) [%] | inhibition (Rattus norvegicus) | Activity (C6 [5]) | inhibition (LN-18 [6]) | inhibition [7] | Activity (LN-18 [9]) [um/hr] | Activity (C6 [10]) | inhibition (C6 [11]) | Activity (LN-18 [12]) | Activity (LN-18 [13]) | inhibition (C6 [14]) | Activity (C6 [15]) [um/hr] | Activity (LN-18 [16]) | inhibition (C6 [17]) | IC50 (C6 [18]) [µM] | Activity (C6 [19]) [%] | Activity (C6 [20]) | inhibition (LN-18 [21]) | further results |
| --- | --- | --- | --- | --- | --- | --- | --- | --- | --- | --- | --- | --- | --- | --- | --- | --- | --- | --- | --- | --- | --- |
| O=C1c2ccccc2C(=O)N1c1nc2scc(-c3ccc(Br)cc3)n2n1 | 12.7 | Dose-Dependent Effect | 47 | Dose-Dependent Effect | Active | Dose-Dependent Effect | Dose-Dependent Effect | 14.36 | Active | Dose-Dependent Effect | Active | Active | Dose-Dependent Effect | 8.96 | Active | Active | 8.09 | 47 | Active | Active | Activity (C6 [1]): 31.9%; Activity (LN-18 [8]): 54.9% |
| O=[N+]([O-])c1ccc(-c2csc3nc(/N=C/c4ccc(Cl)cc4)nn23)cc1 | 12.6 | Dose-Dependent Effect | 35 | Dose-Dependent Effect | Active | Dose-Dependent Effect | Dose-Dependent Effect | 15.04 | Active | Dose-Dependent Effect | Active | Active | Dose-Dependent Effect | 13.6 | Active | Active | 8.74 | 35 | Active | Active | Activity (C6 [22]): 66.5%; Activity (LN-18 [23]): 50% |
| O=C1c2ccccc2C(=O)N1c1nc2scc(-c3ccc(-c4ccccc4)cc3)n2n1 | 8.97 |  |  |  |  |  |  |  |  |  |  |  |  |  |  |  | 5.79 |  |  |  | solubility [24]: Insoluble |
| COc1ccc(-c2csc3nc(/N=C/c4ccc(Cl)cc4Cl)nn23)cc1 | 21.5 |  |  |  |  |  |  |  |  |  |  |  |  |  |  |  | 7.56 |  |  |  | solubility [24]: Insoluble |
